From PubChem BioAssay AID1845206 (Molecular Pharmacology Branch, DTP, NCI, 2023)

Tested on: NCI-H1618 multicellular tumor spheroid viability
Test: Anticancer human tumor NCI-H1618 cell line growth inhibition;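 also: spheroids exposed to agents for 7 days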
Details: for IC50: curve of first compound; for viability, T/C: stronger effect = lower value
Procedure, shortened: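 Complex spheroids of malignant cells with endothelial cells and mesenchymal stem cells; agents alone or combined, from near clinical Cmax (or 10 microM if unknown) down in half-log steps, 0.25% DMSO final.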

[1] = second compound 30 pM, first compound 0.00949 µM
[2] = second compound 30 pM, first compound 0.03 µM
[3] = second compound 30 pM, first compound 0.0949 µM
[4] = second compound 30 pM, first compound 0.3 µM
[5] = second compound 30 pM, first compound 0.949 µM
[6] = second compound 30 pM, first compound 3 µM
[7] = second compound 94.9 pM, first compound 0.00949 µM
[8] = second compound 94.9 pM, first compound 0.03 µM
[9] = second compound 94.9 pM, first compound 0.0949 µM
[10] = second compound 94.9 pM, first compound 0.3 µM
[11] = second compound 94.9 pM, first compound 0.949 µM
[12] = second compound 94.9 pM, first compound 3 µM
[13] = second compound 0.0003 µM, first compound 0.00949 µM
[14] = second compound 0.0003 µM, first compound 0.03 µM
[15] = second compound 0.0003 µM, first compound 0.0949 µM
[16] = second compound 0.0003 µM, first compound 0.3 µM
[17] = second compound 0.0003 µM, first compound 0.949 µM
[18] = second compound 0.0003 µM, first compound 3 µM
[19] = second compound 0.000949 µM, first compound 0.00949 µM
[20] = second compound 0.000949 µM, first compound 0.03 µM
[21] = second compound 0.000949 µM, first compound 0.0949 µM
[22] = second compound 0.000949 µM, first compound 0.3 µM
[23] = second compound 0.000949 µM, first compound 0.949 µM
[24] = second compound 0.000949 µM, first compound 3 µM
[25] = second compound 0.003 µM, first compound 0.00949 µM
[26] = second compound 0.003 µM, first compound 0.03 µM
[27] = second compound 0.003 µM, first compound 0.0949 µM
[28] = second compound 0.003 µM, first compound 0.3 µM
[29] = second compound 0.003 µM, first compound 0.949 µM
[30] = second compound 0.003 µM, first compound 3 µM
[31] = second compound 30 pM, first compound 0.0316 µM
[32] = second compound 30 pM, first compound 0.1 µM
[33] = second compound 30 pM, first compound 0.316 µM
[34] = second compound 30 pM, first compound 1 µM
[35] = second compound 30 pM, first compound 3.16 µM
[36] = second compound 30 pM, first compound 10 µM
[37] = second compound 94.9 pM, first compound 0.0316 µM
[38] = second compound 94.9 pM, first compound 0.1 µM
[39] = second compound 94.9 pM, first compound 0.316 µM
[40] = second compound 94.9 pM, first compound 1 µM
[41] = second compound 94.9 pM, first compound 3.16 µM
[42] = second compound 94.9 pM, first compound 10 µM
[43] = second compound 0.0003 µM, first compound 0.0316 µM
[44] = second compound 0.0003 µM, first compound 0.1 µM
[45] = second compound 0.0003 µM, first compound 0.316 µM
[46] = second compound 0.0003 µM, first compound 1 µM
[47] = second compound 0.0003 µM, first compound 3.16 µM
[48] = second compound 0.0003 µM, first compound 10 µM
[49] = second compound 0.000949 µM, first compound 0.0316 µM
[50] = second compound 0.000949 µM, first compound 0.1 µM
[51] = second compound 0.000949 µM, first compound 0.316 µM
[52] = second compound 0.000949 µM, first compound 1 µM
[53] = second compound 0.000949 µM, first compound 3.16 µM
[54] = second compound 0.000949 µM, first compound 10 µM
[55] = second compound 0.003 µM, first compound 0.0316 µM
[56] = second compound 0.003 µM, first compound 0.1 µM
[57] = second compound 0.003 µM, first compound 0.316 µM
[58] = second compound 0.003 µM, first compound 1 µM
[59] = second compound 0.003 µM, first compound 3.16 µM
[60] = second compound 0.003 µM, first compound 10 µM

## CNCc1ccc(-c2cc(-c3nc(-c4ccc(S(=O)(=O)C(C)C)cc4)cnc3N)on2)cc1 + COc1cc2c(cc1O)CCNC21CSC2c3c(OC(C)=O)c(C)c4c(c3C(COC1=O)N1C(O)C3Cc5cc(C)c(OC)c(O)c5C(C21)N3C)OCO4
Second compound 30 pM
  IC50: 224 nM
Second compound 94.9 pM
  IC50: 130 nM
Second compound 0.0003 µM
  IC50: < 9.49 nM
Second compound 0.000949 µM
  IC50: < 9.49 nM
Second compound 0.003 µM
  IC50: < 9.49 nM
[1]
  viability, T/C: 103%
[2]
  viability, T/C: 100%
[3]
  viability, T/C: 110%
[4]
  viability, T/C: 31.5%
[5]
  viability, T/C: 5.25%
[6]
  viability, T/C: 3.91%
[7]
  viability, T/C: 98.5%
[8]
  viability, T/C: 93.6%
[9]
  viability, T/C: 59.5%
[10]
  viability, T/C: 22.3%
[11]
  viability, T/C: 2.88%
[12]
  viability, T/C: 2.64%
[13]
  viability, T/C: 11.2%
[14]
  viability, T/C: 17.8%
[15]
  viability, T/C: 58.8%
[16]
  viability, T/C: 12.6%
[17]
  viability, T/C: 2.49%
[18]
  viability, T/C: 4.13%
[19]
  viability, T/C: 3.91%
[20]
  viability, T/C: 15.3%
[21]
  viability, T/C: 6.24%
[22]
  viability, T/C: 3.07%
[23]
  viability, T/C: 3.69%
[24]
  viability, T/C: 2.71%
[25]
  viability, T/C: 3.93%
[26]
  viability, T/C: 6.21%
[27]
  viability, T/C: 4.41%
[28]
  viability, T/C: 3.43%
[29]
  viability, T/C: 2.55%
[30]
  viability, T/C: 0.78%

## Cc1cc(C)c(CNC(=O)c2cc(-c3ccc(CN4CCOCC4)cc3)cc3c2cnn3C2CCCC2)c(=O)[nH]1 + COc1cc2c(cc1O)CCNC21CSC2c3c(OC(C)=O)c(C)c4c(c3C(COC1=O)N1C(O)C3Cc5cc(C)c(OC)c(O)c5C(C21)N3C)OCO4
Second compound 30 pM
  IC50: > 10000 nM
Second compound 94.9 pM
  IC50: 1770 nM
Second compound 0.0003 µM
  IC50: < 31.6 nM
Second compound 0.000949 µM
  IC50: < 31.6 nM
Second compound 0.003 µM
  IC50: < 31.6 nM
[31]
  viability, T/C: 92.5%
[32]
  viability, T/C: 86.8%
[33]
  viability, T/C: 89.7%
[34]
  viability, T/C: 72.7%
[35]
  viability, T/C: 88%
[36]
  viability, T/C: 58.6%
[37]
  viability, T/C: 46.9%
[38]
  viability, T/C: 66.5%
[39]
  viability, T/C: 66.9%
[40]
  viability, T/C: 55%
[41]
  viability, T/C: 45.7%
[42]
  viability, T/C: 44.2%
[43]
  viability, T/C: 2.47%
[44]
  viability, T/C: 10.3%
[45]
  viability, T/C: 4.67%
[46]
  viability, T/C: 5.71%
[47]
  viability, T/C: 2.43%
[48]
  viability, T/C: 2.6%
[49]
  viability, T/C: 4.74%
[50]
  viability, T/C: 7.05%
[51]
  viability, T/C: 2.83%
[52]
  viability, T/C: 3.43%
[53]
  viability, T/C: 3.12%
[54]
  viability, T/C: 2.59%
[55]
  viability, T/C: 2.14%
[56]
  viability, T/C: 3%
[57]
  viability, T/C: 3.25%
[58]
  viability, T/C: 4.16%
[59]
  viability, T/C: 3.95%
[60]
  viability, T/C: 1.24%

## Cc1sc2c(c1C)C(c1ccc(Cl)cc1)=NC(CC(=O)Nc1ccc(O)cc1)c1nnc(C)n1-2 (stereo not given) + COc1cc2c(cc1O)CCNC21CSC2c3c(OC(C)=O)c(C)c4c(c3C(COC1=O)N1C(O)C3Cc5cc(C)c(OC)c(O)c5C(C21)N3C)OCO4
Second compound 30 pM
  IC50: 275 nM
Second compound 94.9 pM
  IC50: 157 nM
Second compound 0.0003 µM
  IC50: < 9.49 nM
Second compound 0.000949 µM
  IC50: < 9.49 nM
Second compound 0.003 µM
  IC50: < 9.49 nM
[1]
  viability, T/C: 86.2%
[2]
  viability, T/C: 116%
[3]
  viability, T/C: 93.5%
[4]
  viability, T/C: 45.9%
[5]
  viability, T/C: 11.1%
[6]
  viability, T/C: 2.15%
[7]
  viability, T/C: 72.2%
[8]
  viability, T/C: 84.4%
[9]
  viability, T/C: 63.9%
[10]
  viability, T/C: 29.9%
[11]
  viability, T/C: 3.78%
[12]
  viability, T/C: 1.08%
[13]
  viability, T/C: 22.7%
[14]
  viability, T/C: 2.53%
[15]
  viability, T/C: 10.2%
[16]
  viability, T/C: 11.7%
[17]
  viability, T/C: 0.74%
[18]
  viability, T/C: 0.78%
[19]
  viability, T/C: 4.7%
[20]
  viability, T/C: 2.6%
[21]
  viability, T/C: 1.78%
[22]
  viability, T/C: 0.74%
[23]
  viability, T/C: 0.65%
[24]
  viability, T/C: 0.37%
[25]
  viability, T/C: 2.16%
[26]
  viability, T/C: 2.42%
[27]
  viability, T/C: 0.82%
[28]
  viability, T/C: 0.41%
[29]
  viability, T/C: 0.26%
[30]
  viability, T/C: 0.46%

## [2H]c1nc(C)nc([2H])c1-c1cc(NC[C@@H](C)c2cccc3c(C(=O)NC)ccnc23)ncn1 + COc1cc2c(cc1O)CCNC21CSC2c3c(OC(C)=O)c(C)c4c(c3C(COC1=O)N1C(O)C3Cc5cc(C)c(OC)c(O)c5C(C21)N3C)OCO4
Second compound 30 pM
  IC50: > 10000 nM
Second compound 94.9 pM
  IC50: 249 nM
Second compound 0.0003 µM
  IC50: < 31.6 nM
Second compound 0.000949 µM
  IC50: < 31.6 nM
Second compound 0.003 µM
  IC50: < 31.6 nM
[31]
  viability, T/C: 101%
[32]
  viability, T/C: 93.8%
[33]
  viability, T/C: 87.8%
[34]
  viability, T/C: 103%
[35]
  viability, T/C: 93.9%
[36]
  viability, T/C: 83.3%
[37]
  viability, T/C: 90.6%
[38]
  viability, T/C: 61.4%
[39]
  viability, T/C: 24.4%
[40]
  viability, T/C: 55.4%
[41]
  viability, T/C: 52.7%
[42]
  viability, T/C: 55.7%
[43]
  viability, T/C: 5.13%
[44]
  viability, T/C: 2.89%
[45]
  viability, T/C: 3.41%
[46]
  viability, T/C: 5.38%
[47]
  viability, T/C: 18.8%
[48]
  viability, T/C: 3.93%
[49]
  viability, T/C: 3.46%
[50]
  viability, T/C: 3.49%
[51]
  viability, T/C: 3.75%
[52]
  viability, T/C: 4.59%
[53]
  viability, T/C: 4.63%
[54]
  viability, T/C: 4.69%
[55]
  viability, T/C: 2.53%
[56]
  viability, T/C: 3.55%
[57]
  viability, T/C: 4.4%
[58]
  viability, T/C: 3.2%
[59]
  viability, T/C: 1.87%
[60]
  viability, T/C: 5.37%
